From patent US10435376B2, “Derivatives of 1H-imidazole-4,5-dicarboxamide and use thereof in preparation of anticoccidial drugs” (GUANGZHOU INSIGHTER BIOTECHNOLOGY CO., LTD., priority 2015, dated 2019)
Read-outs that look alike come from different tables or passages of the source.

Tests used:
Type in all cases: in vivo
Eimeria necatrix = assay: Inhibitory effects of the derivatives on Eimeria necatrix of chicken; conditions: for responders at 60 ppm, 60 µg/mL / response vs control in vivo at 60 ppm, 60 µg/mL: Eimeria necatrix, 168 h; for responders at 60 ppm, 60 µg/mL: read-out: Survival rate (%); for response vs control in vivo at 60 ppm, 60 µg/mL: feed or water, read-out: Relative weight gain (%); for response vs control in vivo at 60 ppm, 60 µg/mL / Score (bloody stool score): broilers, 60 ppm in feed, 100,000 E. necatrix oocysts; for Score (bloody stool score): 5 days after inoculation
Protocol: (§1) Bloody stool score: 0, no bloody stool was observed; 1, bloody stool below 25%; 2, 25 to 50% of bloody stool; 3, 50 to 75% of bloody stool; and 4, bloody stool over 75%.
(§2) Relative weight gain (%): The broilers were weighed at the beginning and the end of the trial to calculate the average weight gain and relative weigh gain. Relative weight gain=(average weight gain of each group/average weight gain of group 1)×100%.
(§3) Deaths of the broilers: Necropsy was performed and the amount of dead broilers in each group was recorded to calculate the survival rate. Survival rate=(total amount of the broilers in each group−amount of deaths caused by coccidial infection)/total amount of the broilers in each group×100%.
(§4) One-day-old yellow-feather fast-growing broilers were raised in a coccidia-free environment, and divided into groups for trial at the age of 18 days when no coccidian oocysts were detected by microscopy in their faeceas. Weak or overweight broilers were removed, and healthy broilers were divided into 10 groups with 50 broilers in each group and weight difference between each two broilers was below 20 g. Groups 1 and 2 were respectively a control group that the broilers were neither infected nor treated, and a control group that the broilers were infected but not treated. Groups 3 to 10 were respectively administrated with different derivatives. The broilers were given ad libitum access to feed and water when the feed was added with different medicines according to Table 4 at the day the broilers were divided. 24 Hours after the trial began, 100,000 sporulated Eimeria necatrix oocysts were inoculated via an oral gavage into the crop of every broiler in each group except group 1. Bloody stool score was measured 5 days after the inoculation and the trial was ended 7 days after the inoculation. Relative weight gain (%), survival rate (%) and the bloody stool score were evaluated (according to embodiment 2).

Eimeria tenella = assay: Inhibitory effects of the derivatives on Eimeria tenella of chicken (60 ppm in feed); conditions: for responders at 60 ppm, 60 µg/mL / response vs control in vivo at 60 ppm, 60 µg/mL: Eimeria tenella, 168 h; for responders at 60 ppm, 60 µg/mL: read-out: Survival rate (%); for response vs control in vivo at 60 ppm, 60 µg/mL: relative to group 1 (not infected, not treated), read-out: Relative weight gain (%); for Score (bloody stool score): 5 days after inoculation
Description: as §4, with “into 30” for “into 10”, “to 30” for “to 10”, “Table 1” for “Table 4”, “began, 250,000” for “began, 100,000”, “Eimeria tenella” for “Eimeria necatrix”, “were evaluated.” for “were evaluated (according to embodiment 2).”
as §1, §2, §3

Eimeria acervulina = assay: Inhibitory effects of the derivatives on Eimeria acervulina of chicken; conditions: for responders at 60 ppm, 60 µg/mL / response vs control in vivo at 60 ppm, 60 µg/mL: Eimeria acervulina, 168 h; for responders at 60 ppm, 60 µg/mL: read-out: Survival rate (%); for response vs control in vivo at 60 ppm, 60 µg/mL: feed or water, read-out: Relative weight gain (%)
Protocol: as §2, §3
as §4, with “Table 3” for “Table 4”, “began, 400,000” for “began, 100,000”, “Eimeria acervulina” for “Eimeria necatrix”, “1. The” for “1. Bloody stool score was measured 5 days after the inoculation and the”, “and feed conversion ratio” for “and the bloody stool score”, “were evaluated.” for “were evaluated (according to embodiment 2).”

[1] = broilers, 60 ppm in feed, 250,000 E. tenella oocysts, 7 days after inoculation
[2] = broilers, 60 ppm in feed, 250,000 E. tenella oocysts
[3] = broilers, 60 ppm in feed, 400,000 E. acervulina oocysts, 7 days after inoculation
[4] = broilers, 60 ppm in feed, 400,000 E. acervulina oocysts

Compound	responders at 60 ppm, 60 µg/mL (Eimeria tenella; [1]) [%]	response vs control in vivo at 60 ppm, 60 µg/mL (Eimeria tenella; [2]) [%]	Score (bloody stool score) (Eimeria tenella; [2])	further results
CN1CCN(C(=O)c2nc[nH]c2C(=O)N2CCN(C)CC2)CC1 [IST15008, (1H-imidazole-4,5-diyl) bis((4-methylpiperazin-1-yl)methanone)]	100	89.7	2 (25 to 50% of bloody stool)	responders at 60 ppm, 60 µg/mL (Eimeria necatrix): 100%; response vs control in vivo at 60 ppm, 60 µg/mL (Eimeria necatrix): 81.2%; Score (bloody stool score) (Eimeria necatrix): 3 (50 to 75% of bloody stool)
O=C(Nc1ccc([N+](=O)[O-])cc1)c1nc[nH]c1C(=O)Nc1ccc([N+](=O)[O-])cc1 [IST15009, N^4,N^5-bis(4-nitrophenyl)-1H-imidazole-4,5-dicarboxamide]		82.6	3 (50 to 75% of bloody stool)	responders at 60 ppm, 60 µg/mL (Eimeria tenella): 100%
CCCCN1C(=O)c2nc[nH]c2C1=O [IST15013, 5-butylpyrrolo[3,4-d]imidazole-4,6(1H,5H)-dione]	100	88.8	3 (50 to 75% of bloody stool)	
O=C1NC(=O)c2[nH]cnc21 [IST15015, pyrrolo[3,4-d]imidazole-4,6(1H,5H)-dione]	100	72.5	4 (bloody stool over 75%)	
Cc1nc(=O)c2[nH]cnc2c(=O)[nH]1 [IST15016, 6-methylimidazo[4,5-e][1,3]diazepine-4,8(1H,5H)-dione]	100	74.8	2 (25 to 50% of bloody stool)	responders at 60 ppm, 60 µg/mL (Eimeria acervulina; [3]): 100%; response vs control in vivo at 60 ppm, 60 µg/mL (Eimeria acervulina; [4]): 75.6%; Feed conversion ratio (Eimeria acervulina; [4]): 2.524
NC(=O)c1ncn(Cc2ccc(Cl)cc2)c1C(N)=O [IST15037, 1-(4-chlorobenzyl)-1H-imidazole-4,5-dicarboxamide]	100	99.2	0	anticoccidial activity in view of survival rate, relative weight gain and feed conversion ratio (Eimeria acervulina; 60 ppm, E. acervulina): highest anticoccidial activities; responders at 60 ppm, 60 µg/mL (Eimeria acervulina; [3]): 100%; response vs control in vivo at 60 ppm, 60 µg/mL (Eimeria acervulina; [4]): 98.5%; Feed conversion ratio (Eimeria acervulina; [4]): 2.148; anticoccidial activity in view of survival rate, bloody stool score and relative weight gain (Eimeria necatrix; 60 ppm, E. necatrix): highest anticoccidial activities; responders at 60 ppm, 60 µg/mL (Eimeria necatrix): 100%; response vs control in vivo at 60 ppm, 60 µg/mL (Eimeria necatrix): 98.9%; Score (bloody stool score) (Eimeria necatrix): 0; anticoccidial activity in view of survival rate, bloody stool score and relative weight gain (Eimeria tenella; 60 ppm, E. tenella): highest anticoccidial activities
NC(=O)c1ncn(Cc2cccc(Cl)c2)c1C(N)=O [IST15041, 1-(3-chlorobenzyl)-1H-imidazole-4,5-dicarboxamide]	100	85.4	3 (50 to 75% of bloody stool)	
NC(=O)c1ncn(Cc2ccc(F)cc2)c1C(N)=O [IST15042, 1-(4-fluorobenzyl)-1H-imidazole-4,5-dicarboxamide]	100	81.2	3 (50 to 75% of bloody stool)	
NC(=O)c1ncn(Cc2c(Cl)cccc2Cl)c1C(N)=O [IST15044, 1-(2,6-dichlorobenzyl)-1H-imidazole-4,5-dicarboxamide]	100	79.8	3 (50 to 75% of bloody stool)	
Cc1ccc(Cn2cnc(C(N)=O)c2C(N)=O)cc1 [IST15046, 1-(4-methylbenzyl)-1H-imidazole-4,5-dicarboxamide]	100	78.4	3 (50 to 75% of bloody stool)	
COc1ccc(Cn2cnc(C(N)=O)c2C(N)=O)cc1 [IST15053, 1-(4-methoxybenzyl)-1H-imidazole-4,5-dicarboxamide]	100	82.5	3 (50 to 75% of bloody stool)	
NC(=O)c1ncn(Cc2ccc(Cl)c(Cl)c2)c1C(N)=O [IST15054, 1-(3,4-dichlorobenzyl)-1H-imidazole-4,5-dicarboxamide]	100	71.4	4 (bloody stool over 75%)	
NC(=O)c1ncn(Cc2cc([N+](=O)[O-])cc([N+](=O)[O-])c2)c1C(N)=O [IST15056, 1-(3,5-dinitrobenzyl)-1H-imidazole-4,5-dicarboxamide]		81.3	3 (50 to 75% of bloody stool)	responders at 60 ppm, 60 µg/mL (Eimeria acervulina): 100%; response vs control in vivo at 60 ppm, 60 µg/mL (Eimeria acervulina; [4]): 72.5%; Feed conversion ratio (Eimeria acervulina; [4]): 2.405; responders at 60 ppm, 60 µg/mL (Eimeria tenella): 100%
CC(C)n1cnc(C(N)=O)c1C(N)=O [IST15115, 1-isopropyl-1H-imidazole-4,5-dicarboxamide]	100	85.9	3 (50 to 75% of bloody stool)	
CCCCCn1cnc(C(N)=O)c1C(N)=O [IST15116, 1-pentyl-1H-imidazole-4,5-dicarboxamide]	100	78.6	3 (50 to 75% of bloody stool)	
CS(=O)(=O)c1ccc(Cn2cnc(C(N)=O)c2C(N)=O)cc1 [IST15150, 1-(4-(methylsulfonyl)benzyl)-1H-imidazole-4,5-dicarboxamide]	100	86.3	2 (25 to 50% of bloody stool)	
CC(=O)NC(=O)c1ncn(Cc2ccc(Cl)cc2)c1C(=O)NC(C)=O [IST15151, N^4,N^5-diacetyl-1-(4-chlorobenzyl)-1H-imidazole-4,5-dicarboxamide]	100	83.6	3 (50 to 75% of bloody stool)	
CCC(=O)NC(=O)c1ncn(Cc2ccc(Cl)cc2)c1C(=O)NC(=O)CC [IST15152, 1-(4-chlorobenzyl)-N^4,N^5-dipropionyl-1H-imidazole-4,5-dicarboxamide]	100	85.6	3 (50 to 75% of bloody stool)	
CCCCCCn1cnc(C(N)=O)c1C(N)=O [IST15162, 1-hexyl-1H-imidazole-4,5-dicarboxamide]	100	81.6	3 (50 to 75% of bloody stool)	
CCn1cnc(C(=O)NC(C)=O)c1C(=O)NC(C)=O [IST15165, N^4,N^5-diacetyl-1-ethyl-1H-imidazole-4,5-dicarboxamide]	100	89.7	2 (25 to 50% of bloody stool)	
NC(=O)c1ncn(Cc2ccc(Oc3ccc(Cl)cc3)cc2)c1C(N)=O [IST15167, 1-(4-(4-chlorophenoxy)benzyl)-1H-imidazole-4,5-dicarboxamide]	100	82.7	3 (50 to 75% of bloody stool)	responders at 60 ppm, 60 µg/mL (Eimeria necatrix): 100%; response vs control in vivo at 60 ppm, 60 µg/mL (Eimeria necatrix): 75.8%; Score (bloody stool score) (Eimeria necatrix): 3 (50 to 75% of bloody stool)
